Read-outs that look alike come from different tables or passages of the source.
Key:
CeTS = biological target: T1, CeTS (Caenorhabditis elegans, UniProt Q9Y052); assay: Inhibition of TS-catalyzed reaction (tritium release from [5-3H]dUMP); format: biochemical, C. elegans; details: 20 µM dUMP, 250 µM meTHF
T1 sequence (Q9Y052 1-315): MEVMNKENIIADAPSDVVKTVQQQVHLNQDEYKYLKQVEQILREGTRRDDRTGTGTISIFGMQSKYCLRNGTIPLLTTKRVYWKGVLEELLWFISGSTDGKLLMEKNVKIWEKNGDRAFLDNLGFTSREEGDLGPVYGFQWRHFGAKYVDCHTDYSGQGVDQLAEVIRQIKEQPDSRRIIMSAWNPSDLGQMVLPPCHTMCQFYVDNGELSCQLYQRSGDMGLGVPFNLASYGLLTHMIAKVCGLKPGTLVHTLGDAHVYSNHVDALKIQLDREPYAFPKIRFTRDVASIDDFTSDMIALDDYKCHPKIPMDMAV
Excerpt: (§1) The recombinant human, rat, mouse, T. spiralis and C. elegans TS proteins were produced, purified and separated into phosphorylated and non-phosphorylated fraction, as previously described. TS activity was monitored, following tritium release from [5-^3H]dUMP, and its inhibition studied as earlier reported.

[1] = test system: BJ, U-118 MG and SCC-15 cells; assay: NR assay, summary over the three cell lines; format: cell-based, human; details: 48 h, span over BJ
Experimental: (§2) Biological effect of alvaxanthone and rheediaxanthone B on normal (BJ) and cancer cells (U-118 MG and SCC-15) was estimated using two viability assays, the neutral red uptake (NR) and tetrazolium salts reduction (XTT) assays.
(§3) Thus, alvaxanthone may be damaging mitochondria and impairing their metabolism exerting one of possible mechanisms active in destroying cancer cells. Changes of cell morphology in dependence on increasing alvaxanthone and rheediaxanthone B concentration were also recorded. While the glioma and squamous carcinoma cells formed clusters, lost their adhesion, shrank, and accumulated less NR dye, normal fibroblasts preserved rather normal shapes but the amount of the neutral red dye and confluence of cells decreased. In addition, a lower number of BJ cells was detected (Figure 1B).
(§4) Influence of selected compounds on cells was tested by performing the cytotoxicity (NR and XTT) assays, proliferation assay, cell adhesion assay, cell migration assay, determination of intracellular ATP level, and apoptosis assay as previously reported.

TsTS = TsTS (Trichinella spiralis, UniProt Q9NDD3); assay: Inhibition of TS-catalyzed reaction (tritium release from [5-3H]dUMP); format: biochemical, T. spiralis; details: for remaining activity at 10 µM: compound 10 µM; for remaining activity at 10 µM / remaining activity at 100 µM: 20 µM dUMP; for remaining activity at 100 µM: compound 100 µM
Excerpt: as §1

[2] = test system: caspases 3/7 in BJ, U-118 MG, and SCC-15 cells; assay: Apo-ONE Homogenous Caspase-3/7 Assay; format: cell-based, human; details: 48 h, 5–40 µM, span over the three cell lines
Experimental: (§5) Figure 4 Changes of caspase-3/7 activities and intracellular ATP level in BJ, U-118 MG, and SCC-15 cells after 48-h incubation with 5–40 µM alvaxanthone or rheediaxanthone B. Median results are presented of three independent experiments, each performed in triplicate. The whiskers are lower (25%) and upper (75%) quartile ranges.
The Apo-ONE® Homogenous Caspase-3/7 Assay provides a measurement of the executioner caspases 3/7 activation, characteristic for apoptosis induced via both the intrinsic and extrinsic pathway. It was used to determine apoptosis induction in cells by alvaxanthone and rheediaxanthone B. In each of the three cell lines, compared to the respective non-treated control, treatment with each of the two compounds for 48 h led to a significant activation of the caspases 3/7 (by 2- to 10-fold for alvaxanthone and 8- to 18-fold for rheediaxanthone B), the effect being stronger in cancer than normal cells (Figure 4).
as §4

[3] = test system: thymidylate synthase (TS); assay: Time dependence of TS inhibition (initial results); format: biochemical; details: suggesting slow-binding character
Excerpt: as §1

U-118 MG cells [4] = assay: Proliferation (CyQUANT GR, total cellular DNA content); format: cell-based, human; details: 40 μM, 72 h, BJ vs U-118 MG
Experimental: (§6) The influence of alvaxanthone and rheediaxanthone B on cell proliferation (Figure 2) was assessed by quantitative measurement of the total cellular DNA content, proportional to the cell number.
(§7) Figure 2 Proliferation of cancer (U-118 MG and SCC-15) and normal (BJ) cells after 72 h incubation with 5–40 μM alvaxanthone or 1.25–40 μM rheediaxanthone B, determined with the CyQUANT GR Cell Proliferation Assay Kit. Median results are presented of three independent experiments, each performed in triplicate. The whiskers are lower (25%) and upper (75%) quartile ranges. […] Images collected with Olympus IX-83 microscope with contrast phase (scale bar = 100 µm).
as §4

SCC-15 cells [5] = assay: as above; format: cell-based, human; details: 40 μM, 72 h, BJ vs SCC-15
Experimental: as §6, §7, §4

C. elegans = assay: Toxicity to C. elegans (population growth); details: Caenorhabditis elegans, read-out: LC50 (reduction of growth of the nematode population)
Experimental: C. elegans was maintained as previously described. The effect of the compounds studied on C. elegans population growth was determined as earlier presented.

[6] = test system: SCC-15 human squamous carcinoma cells; assay: Cytotoxicity, neutral red uptake (NR) assay; format: cell-based; details: for IC50: read-out: IC50
Experimental: as §2
(§8) Human glioblastoma cells U-118 MG (ATCC® HTB-15), human squamous carcinoma cells SCC-15 (ATCC® CRL-1623), and normal human skin fibroblasts (ATCC® CRL-2522) were grown, their morphology checked, and number and viability estimated as earlier presented.
as §4

[7] = test system: U-118 MG human glioblastoma cells; assay: Cytotoxicity, neutral red uptake (NR) assay; format: cell-based; details: U-118 MG
Experimental: as §2, §8, §4

U-118 MG cells [8] = assay: Intracellular ATP level (CellTiterGlo); format: cell-based, human; details: 48-h incubation, glioma cells
Experimental: as §5
(§9) On the other hand, rheediaxanthone B caused a reduction of ATP level down to around 30% in glioma cells and fibroblasts, and to 20% in squamous carcinoma cells (Figure 4). In general, with increasing Caspase-3/7 activity the ATP level was decreasing, in accord with the results of Reference.
as §4

BJ cells = assay: Intracellular ATP level (CellTiterGlo); format: cell-based, human; details: 48-h incubation, normal fibroblasts
Experimental: as §5, §9, §4

SCC-15 cells [9] = assay: Intracellular ATP level (CellTiterGlo); format: cell-based, human; details: 48-h incubation, SCC-15
Experimental: as §5, §9, §4

U-118 MG cells [10] = assay: Tetrazolium salts reduction (XTT) assay; format: cell-based, human; details: U-118 MG vs BJ, 48 h
Experimental: as §2, §3, §4

SCC-15 cells [11] = assay: Tetrazolium salts reduction (XTT) assay; format: cell-based, human
Experimental: as §2, §3, §4

Chain of TsTS (Q9NDD3 entry or part of it): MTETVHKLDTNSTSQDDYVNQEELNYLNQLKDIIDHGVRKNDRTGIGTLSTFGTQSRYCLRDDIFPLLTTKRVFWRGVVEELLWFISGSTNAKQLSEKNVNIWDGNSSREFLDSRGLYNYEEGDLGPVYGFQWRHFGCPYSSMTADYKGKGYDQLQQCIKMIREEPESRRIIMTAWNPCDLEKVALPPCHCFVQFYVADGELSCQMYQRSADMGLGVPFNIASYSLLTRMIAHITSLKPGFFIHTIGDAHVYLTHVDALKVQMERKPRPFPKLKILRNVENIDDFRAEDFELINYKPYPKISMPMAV

Compound: C=CC(C)(C)c1c(O)cc2oc3c(O)c(O)cc(CC=C(C)C)c3c(=O)c2c1O [Alvaxanthone (15), Alvaxanthone]
- remaining activity at 10 µM (CeTS; compound 10 µM): 85%
- remaining activity at 100 µM (CeTS; compound 100 µM, read-out: % Remaining Activity): 18%
- IC50 ([1]; Homo sapiens): > 15 µM
- IC50 [1]: < 18 µM
- IC50 (TsTS; IC50, 20 µM dUMP and 50 µM meTHF, mean ± S.E.M. (N=3) for alvaxanthone, rheediaxanthone B not repeated): 41.9 ± 8.1 µM
- remaining activity at 10 µM (TsTS; 50 µM meTHF): 97%
- remaining activity at 10 µM (TsTS; 250 µM meTHF): 98%
- remaining activity at 100 µM (TsTS; 50 µM meTHF): 14%
- remaining activity at 100 µM (TsTS; 250 µM meTHF): 47%
- activation of the caspases 3/7 compared to non-treated control [2]: 2- to 10 fold
- character of inhibition [3]: time-dependent inhibition
- proliferation inhibition weaker with normal (BJ) than cancer cells (U-118 MG cells [4]): 2.3 fold
- proliferation inhibition weaker with normal (BJ) than cancer cells (SCC-15 cells [5]): 5.8 fold
- LC50 (C. elegans): 4.6 ± 0.57 µM
- viability at 40 µM ([6]; Homo sapiens, NR assay, 40 µM, 48 h): 1.5%
- IC50 ([6]; Homo sapiens, SCC-15, neutral red assay): 17 µM
- IC50 ([6]; neutral red assay): 17.7 µM
- viability at 40 µM ([7]; NR assay, 40 µM, 48 h): 10%
- IC50 ([7]; neutral red assay, read-out: IC50): 13.1 µM
- change of ATP level (U-118 MG cells [8]): unaltered
- change of ATP level (BJ cells): slight decrease
- change of ATP level (SCC-15 cells [9]): dramatically reduced
- selectivity: more sensitive compared to BJ fibroblasts (U-118 MG cells [10]): 2.7 fold
- IC50 (SCC-15 cells [11]; Homo sapiens, SCC-15): 17 µM
- selectivity: more sensitive compared to BJ fibroblasts (SCC-15 cells [11]; SCC-15 vs BJ, 48 h): 5.3 fold
